Measurements published in US20030190325A1, “Novel peroxiredoxin defense system from mycobacterium tuberculosis” (priority 2002, published 2003).

Assays:
Lpd (porcine) = biological target: T1, Lpd (porcine) (Sus scrofa, UniProt P09623); assay: Counter-test on porcine Lpd; format: biochemical; parameters: key: “NE” means no effect; conditions: at 10 μM
T1 sequence (P09623 36-509): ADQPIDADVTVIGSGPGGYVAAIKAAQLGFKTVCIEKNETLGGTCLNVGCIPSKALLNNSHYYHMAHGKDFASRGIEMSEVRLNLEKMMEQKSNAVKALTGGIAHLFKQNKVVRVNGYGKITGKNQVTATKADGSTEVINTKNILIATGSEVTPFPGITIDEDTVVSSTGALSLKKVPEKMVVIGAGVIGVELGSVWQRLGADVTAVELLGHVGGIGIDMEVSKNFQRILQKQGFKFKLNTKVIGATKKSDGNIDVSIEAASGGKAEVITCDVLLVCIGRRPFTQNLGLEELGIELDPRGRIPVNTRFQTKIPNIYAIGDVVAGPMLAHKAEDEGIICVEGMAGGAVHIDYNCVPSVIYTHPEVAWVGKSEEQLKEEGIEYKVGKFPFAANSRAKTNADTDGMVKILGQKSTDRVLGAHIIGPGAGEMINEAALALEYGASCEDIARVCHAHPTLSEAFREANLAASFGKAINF

TR (bovine) = assay: Counter-test on bovine TR; format: biochemical; parameters: key: “NE” means no effect; conditions: at 10 μM
αKG-DH (porcine) = assay: Counter-test on porcine αKG-DH; format: biochemical; parameters: key to αKG-DH (porcine): “NE” means no effect; conditions: at 50 μM
SucB = biological target: T2, SucB (Mycobacterium tuberculosis, UniProt P9WIS7); assay: Inhibition constant for the enzyme identified as target: SucB; format: biochemical
T2 construct: Lpd and SucB ORFs were amplified by PCR from M. tuberculosis H37Rv genomic DNA; made in house; host or cells: E. coli BL21(DE3), pET11c, culture supplemented with lipoic acid
T2 sequence (P9WIS7 1-553): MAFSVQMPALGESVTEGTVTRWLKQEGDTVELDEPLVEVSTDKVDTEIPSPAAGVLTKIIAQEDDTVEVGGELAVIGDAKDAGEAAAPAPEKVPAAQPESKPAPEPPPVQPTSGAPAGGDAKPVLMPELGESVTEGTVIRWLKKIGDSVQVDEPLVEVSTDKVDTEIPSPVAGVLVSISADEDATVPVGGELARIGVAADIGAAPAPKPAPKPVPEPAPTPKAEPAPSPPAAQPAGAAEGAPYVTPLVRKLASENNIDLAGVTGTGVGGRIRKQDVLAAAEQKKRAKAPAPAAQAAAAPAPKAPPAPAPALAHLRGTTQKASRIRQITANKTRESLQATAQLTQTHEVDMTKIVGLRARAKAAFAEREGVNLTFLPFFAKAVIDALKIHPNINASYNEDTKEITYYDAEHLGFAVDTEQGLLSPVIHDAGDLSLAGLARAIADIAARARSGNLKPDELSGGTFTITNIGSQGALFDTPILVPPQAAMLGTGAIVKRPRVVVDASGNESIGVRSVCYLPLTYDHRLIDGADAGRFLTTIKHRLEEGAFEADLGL
From the text: Table 2 lists the molecular structures of eleven chemical compounds that were identified from the above screen. The first three compounds in Table 2 were further identified as to which of the 3 enzymes (AhpD, Lpd, SucB) each inhibited.

[1] = biological target: the molecule itself; assay: X-ray crystal structure at 2.0 Å, homotrimer

## Cc1cc(C)cc(/N=C2/NC(=O)/C(=C\c3cc(Br)c(O)c([N+](=O)O)c3)S2)c1 [2368-0687]
Lpd (porcine)
  Lpd (porcine): NE at 10 µM
Mouse macrophages
  Macs Viabil. (50 μM): 70% ±13% *clu- sters
TR (bovine)
  TR (bovine): NE at 10 μM
αKG-DH (porcine)
  αKG-DH (porcine) inhibition: 5-10% inhi- bition at 50 μM

## O=C(O)CCN1C(=O)/C(=C\c2ccc(-c3cccc(C(F)(F)F)c3)o2)SC1=S [2556-0286]
Lpd (porcine)
  Lpd (porcine): NE at 10 μM
Mouse macrophages
  Macs Viabil. (50 μM): 80% ±1%
SucB
  Ki: 3 µM
TR (bovine)
  TR (bovine): NE at 10 μM
αKG-DH (porcine)
  αKG-DH (porcine): NE at 50 μM

## O=C(O)CN1C(=O)/C(=C\c2ccc(-c3cccc(Cl)c3Cl)o2)SC1=S [3229-2113]
Lpd (porcine)
  Lpd (porcine): NE at 10 μM
Mouse macrophages
  Macs Viabil. (50 μM): 91% ±5%
SucB
  Ki: 6 µM
TR (bovine)
  TR (bovine): NE at 10 μM
αKG-DH (porcine)
  αKG-DH (porcine): NE at 50 μM

B1: AhpD (protein encoded by the ahpD gene, Rv2429, of Mycobacterium tuberculosis) (enzyme)
chain: MSIEKLKAALPEYAKDIKLNLSSITRSSVLDQEQLWGTLLASAAATRNPQVLADIGAEATDHLSAAARHAALGAAAIMGMNNVFYRGRGFLEGRYDDLRPGLRMNIIANPGIPKANFELWSFAVSAINGCSHCLVAHEHTLRTVGVDREAIFEALKAAAIVSGVAQALATIEALSPS
notes: Homotrimer in the crystal; also called recombinant AhpD
[1]
  binding result: binds
